Reference: ChEMBL document CHEMBL1151449, “In vitro activity of DC-159a, a new broad-spectrum fluoroquinolone, compared with that of other agents against drug-susceptible and -resistant pneumococci” (2008)
≈ marks a conversion by molar mass, not a printed value.

Legend:
Assay type in all cases: functional
Streptococcus pneumoniae [1] = assay: Antibacterial activity against Streptococcus pneumoniae HMC 2536 harboring S81Y mutation in quinolone-resistant determining regions of GyrA gene, S79F, K137N mutation in QRDR of ParC gene and I460V mutation in QRDR of ParE gene by agar dilution method
Streptococcus pneumoniae [2] = assay: Antibacterial activity against Streptococcus pneumoniae HMC 1147 harboring S81F mutation in quinolone-resistant determining regions of GyrA gene, S79F mutation in QRDR of ParC gene and I460V mutation in QRDR of ParE gene showing efflux to gemifloxacin by agar dilution method
Streptococcus pneumoniae [3] = assay: Antibacterial activity against Streptococcus pneumoniae HMC 4026 harboring S81Y mutation in quinolone-resistant determining regions of GyrA gene, S79F, K137N mutation in QRDR of ParC gene and I460V mutation in QRDR of ParE gene by agar dilution method
Streptococcus pneumoniae [4] = assay: (§1) Antibacterial activity against penicillin-susceptible, quinolone-resistant Streptococcus pneumoniae HMC 1072 expressing ermB and harboring S81F mutation in quinolone-resistant determining regions of GyrA gene, S79Y mutation in QRDR of ParC gene and I460V mutation in QRDR of ParE gene after 50 passages by broth microdilution method
Streptococcus pneumoniae [5] = assay: Antibacterial activity against quinolone-susceptible and penicillin-intermediate Streptococcus pneumoniae HMC 5048 expressing mefA by broth microdilution method
Streptococcus pneumoniae [6] = assay: Antibacterial activity against Streptococcus pneumoniae HMC 1068 harboring E85K mutation in quinolone-resistant determining regions of GyrA gene, S79Y, K137N mutation in QRDR of ParC gene and I460V mutation in QRDR of ParE gene showing efflux to ciprofloxacin, levofloxacin by agar dilution method
Streptococcus pneumoniae [7] = assay: Antibacterial activity against Streptococcus pneumoniae HMC 1073 harboring S81F mutation in quinolone-resistant determining regions of GyrA gene, and I460V mutation in QRDR of ParE gene by agar dilution method
Streptococcus pneumoniae [8] = assay: Antibacterial activity against penicillin-intermediate Streptococcus pneumoniae […] by agar dilution method
Streptococcus pneumoniae [9] = assay: Antibacterial activity against Streptococcus pneumoniae HMC 1151 harboring D83N, K137N mutation in quinolone-resistant determining regions of ParC gene and I460V mutation in QRDR of ParE gene showing efflux to ciprofloxacin, gemifloxacin by agar dilution method
Streptococcus pneumoniae [10] = assay: as §1, with “pneumoniae” for “pneumoniae HMC”, “gene” for “gene after 50 passages”
Streptococcus pneumoniae [11] = assay: Antibacterial activity against Streptococcus pneumoniae HMC 1078 harboring S81F mutation in quinolone-resistant determining regions of GyrA gene, S79F mutation in QRDR of ParC gene and I460V mutation in QRDR of ParE gene by agar dilution method
Streptococcus pneumoniae [12] = assay: as §1, with “penicillin-, macrolide-susceptible and” for “penicillin-susceptible,”, “1074” for “1072 expressing ermB and”, “S79F” for “S79Y”
Streptococcus pneumoniae [13] = assay: Antibacterial activity against Streptococcus pneumoniae HMC 1156 harboring S81F and S79F mutation in quinolone-resistant determining regions of GyrA and ParC genes respectively showing efflux to ciprofloxacin, gemifloxacin by agar dilution method
Streptococcus pneumoniae [14] = assay: Antibacterial activity against macrolide-, quinolone-susceptible and penicillin-intermediate Streptococcus pneumoniae HMC 100 by broth microdilution method
Streptococcus pneumoniae [15] = assay: Antibacterial activity against penicillin-susceptible Streptococcus pneumoniae ATCC 49619 by agar dilution method
Streptococcus pneumoniae [16] = assay: Antibacterial activity against Streptococcus pneumoniae HMC 1139 harboring S81F mutation in quinolone-resistant determining regions of GyrA gene, S79F, K137N mutation in QRDR of ParC gene and I460V mutation in QRDR of ParE gene by agar dilution method
Streptococcus pneumoniae [17] = assay: Antibacterial activity against penicillin-, macrolide- and quinolone-susceptible Streptococcus pneumoniae HMC 63 after 50 passages by broth microdilution method
Streptococcus pneumoniae [18] = assay: (§2) Antibacterial activity against penicillin-resistant and quinolone-susceptible Streptococcus pneumoniae HMC 3583 expressing mefA and harboring S81F mutation in quinolone-resistant determining regions of GyrA gene, D83N mutation in QRDR of ParC gene and I460V mutation in QRDR of ParE gene after 44 passages with levofloxacin measured after 10 daily antibiotic-free subculturing by multi-step resistance selection technique
Streptococcus pneumoniae [19] = assay: Antibacterial activity against macrolide-, quinolone-susceptible and penicillin-intermediate Streptococcus pneumoniae HMC 99 by broth microdilution method
Streptococcus pneumoniae [20] = assay: Antibacterial activity against penicillin-, quinolone-resistant Streptococcus pneumoniae HMC 1541 harboring mutation in L4 protein by broth microdilution method
Streptococcus pneumoniae [21] = assay: Antibacterial activity against Streptococcus pneumoniae HMC 1077 harboring S81Y and S79F mutation in quinolone-resistant determining regions of GyrA and ParC genes respectively by agar dilution method
Streptococcus pneumoniae [22] = assay: Antibacterial activity against Streptococcus pneumoniae HMC 1071 harboring S81F mutation in quinolone-resistant determining regions of GyrA gene and S79F, K137N mutation in QRDR of ParC gene by agar dilution method
Streptococcus pneumoniae [23] = assay: Antibacterial activity against Streptococcus pneumoniae HMC 1541 harboring S81Y mutation in quinolone-resistant determining regions of GyrA gene, S79F, K137N mutation in QRDR of ParC gene and I460V mutation in QRDR of ParE gene by agar dilution method
Streptococcus pneumoniae [24] = assay: Antibacterial activity against penicillin-, macrolide- and quinolone-susceptible Streptococcus pneumoniae HMC 63 by broth microdilution method
Streptococcus pneumoniae [25] = assay: Antibacterial activity against Streptococcus pneumoniae HMC 1070 harboring S81F mutation in quinolone-resistant determining regions of GyrA gene, D83N mutation in QRDR of ParC gene and I460V mutation in QRDR of ParE gene by agar dilution method
Streptococcus pneumoniae [26] = assay: Antibacterial activity against quinolone-susceptible and penicillin-intermediate Streptococcus pneumoniae HMC 441 expressing ermB by broth microdilution method
Streptococcus pneumoniae [27] = assay: Antibacterial activity against Streptococcus pneumoniae HMC 2538 harboring S81Y mutation in quinolone-resistant determining regions of GyrA gene, S79F, K137N mutation in QRDR of ParC gene and I460V mutation in QRDR of ParE gene showing efflux to ciprofloxacin, levofloxacin, gatifloxacin by agar dilution method
Streptococcus pneumoniae [28] = assay: as §2, with “228” for “3583”, “ermB” for “mefA”, “S79Y” for “D83N”, “38” for “44”, “gatifloxacin” for “levofloxacin”
Streptococcus pneumoniae [29] = assay: Antibacterial activity against Streptococcus pneumoniae HMC 1150 harboring S81C mutation in quinolone-resistant determining regions of GyrA gene, S79F mutation in QRDR of ParC gene and I460V mutation in QRDR of ParE gene by agar dilution method
Streptococcus pneumoniae [30] = assay: Antibacterial activity against azithromycin-susceptible Streptococcus pneumoniae ATCC 49619 by agar dilution method
Streptococcus pneumoniae [31] = assay: Antibacterial activity against penicillin-, quinolone-resistant and macrolide-susceptible Streptococcus pneumoniae HMC 1058 harboring S79F, K137N mutation in quinolone-resistant determining regions of ParC gene and 460V mutation in QRDR of ParE gene by broth microdilution method
Streptococcus pneumoniae [32] = assay: Antibacterial activity against Streptococcus pneumoniae HMC 3041 after 50 passages by broth microdilution method

| SMILES | MIC (Streptococcus pneumoniae [1]) [µg/mL] | MIC (Streptococcus pneumoniae [2]) [µg/mL] | MIC (Streptococcus pneumoniae [3]) [µg/mL] | MIC (Streptococcus pneumoniae [4]) [µg/mL] | MIC (Streptococcus pneumoniae [5]) [µg/mL] | MIC (Streptococcus pneumoniae [6]) [µg/mL] | MIC (Streptococcus pneumoniae [7]) [µg/mL] | MIC50 (Streptococcus pneumoniae [8]) [µg/mL] | MIC90 (Streptococcus pneumoniae [8]) [µg/mL] | MIC (Streptococcus pneumoniae [9]) [µg/mL] | MIC (Streptococcus pneumoniae [10]) [µg/mL] | MIC (Streptococcus pneumoniae [11]) [µg/mL] | MIC (Streptococcus pneumoniae [12]) [µg/mL] | MIC (Streptococcus pneumoniae [13]) [µg/mL] | MIC (Streptococcus pneumoniae [14]) [µg/mL] | MIC50 (Streptococcus pneumoniae [15]) [µg/mL] | MIC90 (Streptococcus pneumoniae [15]) [µg/mL] | MIC (Streptococcus pneumoniae [16]) [µg/mL] | MIC (Streptococcus pneumoniae [17]) [µg/mL] | MIC (Streptococcus pneumoniae [18]) [µg/mL] | other results |
| --- | --- | --- | --- | --- | --- | --- | --- | --- | --- | --- | --- | --- | --- | --- | --- | --- | --- | --- | --- | --- | --- |
| COc1c(N2CC3(CC3)[C@](C)(N)C2)c(F)cc2c(=O)c(C(=O)O)cn([C@@H]3C[C@@H]3F)c12.O | 1 | 1 | 1 | 1 | 0.12 | 1 | 1 | 0.12 | 0.12 | 0.25 | 1 | 1 | 1 | 1 | 0.12 | 0.12 | 0.25 | 1 | 0.125 | 1 | MIC (Streptococcus pneumoniae [19]): 0.12 µg/mL; MIC (Streptococcus pneumoniae [20]): 1 µg/mL; MIC (Streptococcus pneumoniae [21]): 1 µg/mL; MIC (Streptococcus pneumoniae [22]): 1 µg/mL; MIC (Streptococcus pneumoniae [23]): 0.5 µg/mL; MIC (Streptococcus pneumoniae [24]): 0.12 µg/mL; MIC (Streptococcus pneumoniae [25]): 1 µg/mL; MIC (Streptococcus pneumoniae [26]): 0.12 µg/mL; MIC (Streptococcus pneumoniae [27]): 1 µg/mL; MIC (Streptococcus pneumoniae [28]): 1 µg/mL; MIC (Streptococcus pneumoniae [29]): 0.5 µg/mL; MIC50 (Streptococcus pneumoniae [30]): 0.12 µg/mL; MIC90 (Streptococcus pneumoniae [30]): 0.5 µg/mL; MIC (Streptococcus pneumoniae [31]): 0.5 µg/mL; MIC (Streptococcus pneumoniae [32]): 0.125 µg/mL |
| COc1c(N2CCNC(C)C2)c(F)cc2c(=O)c(C(=O)O)cn(C3CC3)c12 (stereo not given) [GATIFLOXACIN] | 16 (≈ 42.6 µM) | 8 (≈ 21.3 µM) | 16 (≈ 42.6 µM) | 8 (≈ 21.3 µM) | 0.25 (≈ 0.666 µM) | 8 (≈ 21.3 µM) | 4 (≈ 10.7 µM) | 0.5 (≈ 1.33 µM) | 0.5 (≈ 1.33 µM) | 2 (≈ 5.33 µM) | 8 (≈ 21.3 µM) | 8 (≈ 21.3 µM) | 8 (≈ 21.3 µM) | 8 (≈ 21.3 µM) | 0.5 (≈ 1.33 µM) | 0.5 (≈ 1.33 µM) | 1 (≈ 2.66 µM) | 8 (≈ 21.3 µM) | 1 (≈ 2.66 µM) | 4 (≈ 10.7 µM) | MIC (Streptococcus pneumoniae [19]): 0.12 µg/mL (≈ 0.32 µM); MIC (Streptococcus pneumoniae [20]): 4 µg/mL (≈ 10.7 µM); MIC (Streptococcus pneumoniae [21]): 8 µg/mL (≈ 21.3 µM); MIC (Streptococcus pneumoniae [22]): 8 µg/mL (≈ 21.3 µM); MIC (Streptococcus pneumoniae [23]): 4 µg/mL (≈ 10.7 µM); MIC (Streptococcus pneumoniae [24]): 0.5 µg/mL (≈ 1.33 µM); MIC (Streptococcus pneumoniae [25]): 4 µg/mL (≈ 10.7 µM); MIC (Streptococcus pneumoniae [26]): 0.25 µg/mL (≈ 0.666 µM); MIC (Streptococcus pneumoniae [27]): 8 µg/mL (≈ 21.3 µM); MIC (Streptococcus pneumoniae [28]): 4 µg/mL (≈ 10.7 µM); MIC (Streptococcus pneumoniae [29]): 4 µg/mL (≈ 10.7 µM); MIC50 (Streptococcus pneumoniae [30]): 0.5 µg/mL (≈ 1.33 µM); MIC90 (Streptococcus pneumoniae [30]): 4 µg/mL (≈ 10.7 µM); MIC (Streptococcus pneumoniae [31]): 4 µg/mL (≈ 10.7 µM); MIC (Streptococcus pneumoniae [32]): 0.5 µg/mL (≈ 1.33 µM) |
